Test results as given in PMC12649225, “Machine Learning-Identified Potent Antimicrobial Peptides Against Multidrug-Resistant Bacteria and Skin Infections” (Antibiotics, 2025).
≈ marks a conversion by molar mass, not a printed value. Where two headings read alike, the source gives them in different places. No end group written: not given here.

Tests used:
[1] = tested on: S. aureus JAR060131; assay type: cell-based; conditions: for LC99.9 S. aureus JAR060131 50% Plasma 2 h / LC99.9 S. aureus JAR060131 RPMI 2 h: JAR060131, 2 h
Method: (§1) The bacterial strains used in this study included S. aureus JAR060131 [54] and the MDR ESKAPE pathogens Enterococcus faecium LUH15122, S. aureus LUH14616, Klebsiella pneumoniae LUH15104, A. baumannii RUH875 [55], Pseudomonas aeruginosa LUH15103, Enterobacter cloacae LUH15114, and the colistin-resistant Escherichia coli LUH15117. Before each experiment, bacteria from frozen stocks were cultured at 37 °C for 18–24 h on sheep blood agar plates (BioMérieux, Marcy-l’Étoile, France). All strains were then cultured from colonies either in tryptic soy broth (TSB; Oxoid, Basingstoke, UK) for A. baumannii, S. aureus, and E. faecium, or in brain heart infusion broth (BHI; Oxoid) for K. pneumoniae, P. aeruginosa, E. cloacae, and E. coli at 37 °C with shaking at 120 rpm for 18–24 h. Subsequently, bacteria were cultured to mid-logarithmic phase in the media described above at 37 °C with shaking at 120 rpm for 3 h. Bacteria were then washed twice with PBS and diluted to the required inoculum suspension concentration in Roswell Park Memorial Institute (RPMI)-1640 medium containing 20 mM HEPES and L-glutamine but without sodium bicarbonate (Sigma-Aldrich; hereafter referred to as RPMI), based on optical density at 620 nm. RPMI was selected because it supports bacterial growth without impairing AMP activity.
(§2) Bactericidal activity was assessed as described by de Breij et al.. Briefly, mid-logarithmic phase bacterial cultures were diluted to a final concentration of 1 × 10^7 colony-forming units (CFU)/mL in RPMI. Then, 10 µL was added to a final volume of 100 µL in RPMI (final concentration: 1 × 10^6 CFU/mL). Cultures were exposed to peptides either in RPMI or RPMI supplemented with 50% (v/v) human plasma (hereafter referred to as 50% plasma), obtained from four healthy volunteers after informed consent, frozen after collection, and pooled (Sanquin, Amsterdam, The Netherlands). Assays were performed in duplicate using round-bottom polypropylene microtiter plates (Costar, Arlington, VA, USA) and repeated three times. In the initial screening phase (Table 1, Table 2 and Table S1), peptide solutions of 1, 10, and 100 μM (final concentration) were tested against A. baumannii RUH875 and S. aureus JAR060131 in RPMI and in 50% plasma. After this selection process, two lead candidates, their RI variants, and reference peptides were tested with a final concentration range of 0.12 to 120 µM (two-fold dilutions) in RPMI and in 50% plasma (Table 3). The peptides were also tested against ESKAPE pathogens, with Synthetic Antimicrobial and Antibiofilm Peptide (SAAP)-148 as a reference peptide (Table 4).RPMI or 50% plasma served as no-treatment controls. After 2 and 18 h of incubation at 37 °C with shaking at 120 rpm in a humidified environment, the numbers of viable bacteria were quantified. Bactericidal activity was expressed as the lethal concentration 99.9% (LC99.9), defined as the lowest peptide concentration that killed ≥99.9% of bacteria within 2 h (LC99.9_2h) or 18 h (LC99.9_18h) compared to the initial inoculum.

[2] = tested on: A. baumannii RUH875; assay type: cell-based
Method: as §1, §2

[3] = tested on: A. baumannii RUH875 biofilm; assay: Biofilm killing; assay type: cell-based, Acinetobacter baumannii; conditions: for Concentration achieving significant biofilm killing of A. baumannii: at any treatment time (2 h, 24 h), tested up to 120 µM; for A. baumannii biofilm killing, 24 h treatment (in words): up to 120 µM
Method: (§3) Mid-logarithmic phase cultures of A. baumannii RUH875 or S. aureus JAR060131 were diluted to 1 × 10^8 CFU/mL in RPMI supplemented with 1% glucose. A total of 100 μL of each suspension was added to flat-bottom polystyrene 96-well microplates (Costar) and incubated under static conditions at 37 °C in a humidified atmosphere for 24 h to allow biofilm formation. After 24 h, planktonic bacteria were removed, and wells were carefully washed with 100 μL PBS [60]. […] Control samples were exposed to 100 μL of PBS only.
(§4) Biofilms were treated at 37 °C for either 2 or 24 h. […] Plates were sealed and sonicated for 5 min (Elmasonic, Singen, Germany; 45 kHz) at room temperature to dislodge adherent bacteria. […] Quantitative cultures were performed by plating serial 10-fold dilutions on sheep blood agar, and results were expressed as log10 CFU per well. The lower limit of detection was three CFU. Each condition was tested in six replicates.

[4] = tested on: BJ human skin fibroblast cells; assay: WST-1 metabolic activity assay (cell viability); conditions: lowest concentration causing <70% metabolic activity (WST-1); BJ fibroblasts; 24 h; DMEM with 2% FBS; 0.05-60 µM
Method: (§5) BJ human skin fibroblast cells (ATCC CRL-2522; RRID: CVCL_3653; LGC Standards, Germany (September 2023)) were cultured in Dulbecco’s Modified Eagle Medium (DMEM; Gibco, Waltham, MA, USA) supplemented with 10% (v/v) foetal bovine serum (FBS; Sigma-Aldrich) and 1% (v/v) penicillin/streptomycin (pen/strep; Gibco). Cell suspensions (5 × 10^5 cells/mL) were seeded into 96-well plates (100 μL/well; Thermo Scientific, Waltham, MA, USA) and allowed to adhere for 24 h. Monolayers were then exposed to two-fold serial dilutions of GDST peptides, their RI variants, and reference peptides (final concentrations: 0.05 to 60 µM) in fresh DMEM with 2% (v/v) FBS for 24 h at 37 °C in a humidified atmosphere with 5% CO2.
(§6) Cell viability and membrane integrity were assessed using the water-soluble tetrazolium salt (WST-1; Roche, Basel, Switzerland) assay and the lactate dehydrogenase (LDH; Abcam, Cambridge, UK) assay, respectively, according to manufacturer instructions. Results were expressed as percentages of metabolic activity and LDH leakage relative to untreated control cells and the positive lysis control, respectively. The cytotoxic concentration was defined as the lowest peptide concentration causing <70% metabolic activity and >30% LDH leakage. All experiments were performed in triplicate.

[5] = tested on: S. aureus JAR060131 biofilm; assay: Biofilm killing; assay type: cell-based, Staphylococcus aureus; conditions: for S. aureus biofilm killing, 24 h treatment (in words): up to 120 µM; for S. aureus biofilm killing, 24 h treatment (in words) / Concentration giving ≥3-log reduction of S. aureus biofilm CFU within 24 h: 24 h treatment; for Concentration giving ≥3-log reduction of S. aureus biofilm CFU within 24 h: >3 log for BP2 and pexiganan
Method: as §3, §4

[6] = tested on: BJ human skin fibroblast cells; assay: LDH leakage assay (membrane integrity); conditions: lowest concentration causing >30% LDH leakage; BJ fibroblasts; 24 h; DMEM with 2% FBS; 0.05-60 µM
Method: as §5, §6

[7] = tested on: A. baumannii RUH875; assay: microbe, parasite or virus in culture; assay type: cell-based, Acinetobacter baumannii; conditions: for MIC: Acinetobacter baumannii
Method: (§7) The potential for resistance development to GDST-038, GDST-045, and their RI variants was assessed as described by Habets and Brockhurst. Resistance development to the antibiotics rifampicin and ciprofloxacin (both from Sigma-Aldrich) was evaluated for comparison. Briefly, 10 μL of a mid-logarithmic phase culture of A. baumannii RUH875 or S. aureus JAR060131 was added to 90 μL of peptide (final concentrations: 0.23 to 120 μM) or antibiotic (final concentrations: 0.03 to 256 μg/mL) solution in RPMI, in 96-well polypropylene round-bottom plates (Costar). All incubations were performed in quadruplicate. Plates were sealed with breathable seals (Greiner) and incubated at 37 °C with shaking at 120 rpm in a humidified environment for 18 h (S. aureus) or 48 h (A. baumannii).
(§8) The minimum inhibitory concentration (MIC), defined as the lowest concentration that inhibited visible bacterial growth, was then determined. Subsequently, 2 μL from the 0.5-fold MIC condition was transferred to fresh medium containing a concentration series ranging from 0.5- to 8-fold the new MIC. This procedure was repeated over 22 consecutive passages to monitor resistance development.

[8] = tested on: S. aureus JAR060131; assay: microbe, parasite or virus in culture; assay type: cell-based, Staphylococcus aureus; conditions: Staphylococcus aureus
Method: as §7, §8

[9] = RPMI, 18 h, median of three independent experiments

Compound	Concentration achieving significant biofilm killing of A. baumannii [3] [µM]	Cytotoxicity Metabolic Activity <70% [4] [µM]	S. aureus biofilm killing, 24 h treatment (in words) [5]	Cytotoxicity LDH Leakage >30% [6] [µM]	LC99.9 S. aureus JAR060131 50% Plasma 2 h [1] [µM]	LC99.9 S. aureus JAR060131 RPMI 2 h [1] [µM]	LC99.9 S. aureus JAR060131 RPMI 18 h ([1]; JAR060131, 18 h) [µM]	LC99.9 A. baumannii RUH875 50% Plasma 2 h ([2]; RUH875, 2 h) [µM]	LC99.9 A. baumannii RUH875 RPMI 18 h ([2]; RUH875, 18 h) [µM]	A. baumannii biofilm killing, 24 h treatment (in words) [3]	Concentration giving ≥3-log reduction of S. aureus biofilm CFU within 24 h [5] [µM]	also measured
CC[C@H](C)[C@H](NC(=O)[C@H](CCCCN)NC(=O)[C@H](CCC(=O)O)NC(=O)[C@H](CCCCN)NC(=O)[C@H](CO)NC(=O)[C@H](CCCCN)NC(=O)[C@H](CCCNC(=N)N)NC(=O)[C@H](Cc1ccccc1)NC(=O)[C@H](Cc1ccccc1)NC(=O)[C@H](CC(=O)O)NC(=O)CNC(=O)[C@H](CC(C)C)NC(=O)[C@@H](N)CC(C)C)C(=O)NCC(=O)N[C@@H](CCCCN)C(=O)N[C@@H](CCC(=O)O)C(=O)N[C@@H](Cc1ccccc1)C(=O)N[C@@H](CCCCN)C(=O)N[C@@H](CCCNC(=N)N)C(=O)N[C@H](C(=O)N[C@H](C(=O)N[C@@H](CCC(N)=O)C(=O)N[C@@H](CCCNC(=N)N)C(=O)N[C@H](C(=O)N[C@@H](CCCCN)C(=O)N[C@@H](CC(=O)O)C(=O)N[C@@H](Cc1ccccc1)C(=O)N[C@@H](CC(C)C)C(=O)N[C@@H](CCCNC(=N)N)C(=O)N[C@@H](CC(N)=O)C(=O)N[C@@H](CC(C)C)C(=O)N[C@H](C(=O)N1CCC[C@H]1C(=O)N[C@@H](CCCNC(=N)N)C(=O)N[C@H](C(=O)N[C@@H](CCC(=O)O)C(=O)N[C@@H](CO)C(=O)O)[C@@H](C)O)C(C)C)[C@@H](C)CC)C(C)C)[C@@H](C)CC [LL-37, reference compound]	> 120	15	did not exhibit significant biofilm-killing effects	7.5	–	–	–	–	–	–	–	LC99.9 S. aureus JAR060131 RPMI 18 h [1, 9]: > 120 µM; LC99.9 A. baumannii RUH875 50% Plasma 2 h ([2]; 50% plasma, 2 h, median of three independent experiments): 60 µM; LC99.9 A. baumannii RUH875 50% Plasma 18 h ([2]; 50% plasma, 18 h, median of three independent experiments): 60 µM; LC99.9 A. baumannii RUH875 RPMI 2 h ([2]; RPMI, 2 h, two-fold dilutions 0.12-120 µM, median of three independent experiments): 1.88 µM; LC99.9 A. baumannii RUH875 RPMI 18 h [2, 9]: 1.88 µM
O=C(O)c1cn(C2CC2)c2cc(N3CCNCC3)c(F)cc2c1=O [ciprofloxacin, reference compound]	–	–	–	–	–	–	–	–	–	–	–	MIC ([7]; RUH875, read-out: MIC A. baumannii after 22 passages): 64 µg/mL (≈ 193 µM); MIC ([7]; RUH875, read-out: MIC A. baumannii before passaging): 0.5 µg/mL (≈ 1.51 µM); MIC increase in A. baumannii after 22 passages ([7]; relative to first passage): 128 fold
CO[C@H]1/C=C/O[C@@]2(C)Oc3c(C)c(O)c4c(O)c(c(/C=N/N5CCN(C)CC5)c(O)c4c3C2=O)NC(=O)/C(C)=C\C=C\[C@H](C)[C@H](O)[C@@H](C)[C@@H](O)[C@@H](C)[C@H](OC(C)=O)[C@@H]1C [rifampicin, reference compound]	–	–	–	–	–	–	–	–	–	–	–	MIC ([8]; JAR060131, read-out: MIC S. aureus after 22 passages): 4100 µg/mL (≈ 4980 µM); MIC ([8]; JAR060131, read-out: MIC S. aureus before passaging): 0.25 µg/mL (≈ 0.304 µM)
GIGKFLKKAKKFGKAFVKILKK-NH2 (C-terminus assumed) [Pexiganan, reference compound]	–	–	–	–	7.50	0.47	0.23	0.23	0.47	not sustained after 24 h	≥ 30	Concentration killing ≥3 log CFU of A. baumannii biofilm within 2 h ([3]; 24 h biofilm, 2 h treatment in PBS, 1.88-120 μM, vs untreated biofilm): ≥ 30 µM
LRAMCIKWWSGKHPK [TC84, reference compound]	> 120	–	did not exhibit significant biofilm-killing effects	–	7.5	7.5	7.5	3.75	3.75	–	–	–
GKWKLFKKAFKKFLKILAC [BP2, reference compound]	–	0.47	–	1.88	–	–	–	–	–	complete eradication	≥ 30	Concentration giving complete eradication of S. aureus biofilm within 24 h ([5]; 24 h biofilm, 24 h treatment in PBS): ≥ 60 µM
